In patent US20230381215A1, “NOVEL COMBINATION TREATMENT FOR ACUTE MYELOID LEUKEMIA (AML)” (Hoffmann-La Roche Inc., priority 2013, published 2023):

Key:
[1] = tested on: MOLM-13.luc.c4 (MOLM-13 human AML cells); assay: Antitumor efficacy and survival/increase in life span (ILS) in disseminated MOLM-13.luc.c4 AML model; format: in vivo, SCID beige mice; details: for antitumor activity as assessed by tumor burden (BLI) or ILS / tumor burden by BLI photon counts compared to Vehicle-treated control (FIG. 1): monotherapy; for tumor burden by BLI photon counts compared to Vehicle-treated control (FIG. 1): treatment initiated on day 3
Protocol: (§1) Female SCID beige mice (10/group), obtained from Charles River Laboratories (Wilmington, DE) were used when they were approximately 8-12 weeks old and weighed approximately 20-25 grams. The health of the mice was assessed daily by gross observation and analyses of blood samples taken from sentinel animals housed on shared shelf racks. All animals were allowed to acclimate and recover from any shipping-related stress for a minimum of 72 hours prior to experimental use. Autoclaved water and irradiated food (5058-ms Pico Lab mouse chow, Purina Mills, Richmond, IN) were provided ad libitum, and the animals were maintained on a 12 hour light and dark cycle. Cages, bedding and water bottles were autoclaved before use and changed weekly. All animal experiments were conducted in accordance with the Guide for the Care and Use of Laboratory Animals, local regulations, and protocols approved by the Roche Animal Care and Use Committee in an AAALAC accredited facility.
Parental MOLM-13 human AML cells were stably transfected with Luc2 lentiviral particles for 24 hrs in the presence of Polybrene (8 ug/ml) and then selected in the presence of Blasticidin for 3 weeks. Subsequently, one clone was selected by single cell plating in the presence of 0.1 mg/mL G418 and was designated MOLM-13.luc.c4. The lentiviral Luc2 expression plasmid was constructed by incorporating Luc2 gene (Promega) in to pLOC lentiviral plasmid backbone (Thermo Fisher Scientific). Luc2 lentiviral particles were prepared by using Trans-Lentiviral Packaging System (Thermo Fisher Scientific) as recommended.
MOLM-13.luc.c4 was maintained with RPMI 1640 with L-glutamine (2 mM) media (GIBCO/Invitrogen, Carlsbad, CA) supplemented with 10% heat-inactivated Fetal Bovine Serum (HI-FBS; GIBCO/Invitrogen, Carlsbad, CA), and 1% 100 mM sodium pyruvate. Freshly dissociated MOLM13-Luc.c4 cells (1×106 or 5×106) suspended in Phosphate Buffered Saline (PBS) were then intravenously inoculated via the caudal tail vein into female SCID-beige mice.
It was then filtered thru a 0.22 micron filter into a septum sealed vial for intravenous administration. […] Stock cytarabine (Ara-C injection, 100 mg/ml) was diluted in sterile 0.9% sodium chloride to 44 mg/ml according to manufacturer's instructions and dosed at 200 mg/kg iv twice weekly.
Treatment duration was 3 weeks.
(§2) For increased life span (ILS) assessment, animal body weights were measured two to three times per week, and animals were monitored daily for any clinical signs of toxicity or excessive tumor burden (i.e. hind limb paralysis or morbidity). In addition, progression of disease was monitored by in vivo bioluminescent imaging (BLI) using IVIS® Spectrum system. For each BLI session, mice received 100 mg/kg D-luciferin (Caliper Life Sciences/Perkin-Elmer) via ip injections and were imaged at 20 min post luciferin injection at either a 5 s or a 10 s exposure time. Images were captured by the IVIS® Spectrum system and data were collected and analyzed with Living Image 4.2.0 software (Caliper Life Sciences, Hopkinton, MA). Total photon fluxes (ph/s) representing luciferase activity within each fixed region of interest (ROI) covering whole tumors of individual mice were determined. The actual images of mice are not disclosed herein.
Quantification of bioluminescence allowed for direct longitudinal comparison of tumor burden between treatment groups prior to surrogate death end points being reached. Tumor burden was graphically represented as the mean BLI photon flux+standard error of the mean (SEM), and median survival was determined utilizing Kaplan Meier survival analysis. Statistical analysis of comparisons between groups was analyzed by two-way ANOVA, and post-hoc Bonferroni test (GraphPad Prism, version 4.3). Differences between groups were considered to be significant when the probability value (p) was ≤0.05.

[2] = Ara-C 200 mg/kg 2×/week iv; 10/group
Protocol: as §1, with “Cages, bedding and water bottles were autoclaved before use and changed weekly. All animal experiments were conducted in accordance with the Guide for the Care and Use of Laboratory Animals, local regulations, and protocols approved by the Roche Animal Care and Use Committee in an AAALAC accredited facility.” left out
as §2, with “For each BLI session, mice received 100 mg/kg D-luciferin (Caliper Life Sciences/Perkin-Elmer) via ip injections and were imaged at 20 min post luciferin injection at either a 5 s or a 10 s exposure time.” left out, “The actual images of mice are not disclosed herein.” left out

Compound: Nc1ccn([C@@H]2O[C@H](CO)[C@@H](O)[C@@H]2O)c(=O)n1 [Ara-C, cytarabine, reference compound]
- % ILS vs. Vehicle control ([1]; Ara-C 200 mg/kg 2×/wk iv): 0%
- Median survival ([1]; Ara-C 200 mg/kg 2×/wk iv): 20 days
- antitumor activity as assessed by tumor burden (BLI) or ILS [1]: lack of monotherapy activity
- tumor burden by BLI photon counts compared to Vehicle-treated control (FIG. 1) ([1]; 5 million cells): no difference
- antitumor activity as assessed by tumor burden (BLI) or ILS ([1]; listed as Cytarabine (Ara-C)): lack of antitumor activity
- Mortality [2]: 0

Compound: 4-{[(2R,3S,4R,5S)-3-(3-Chloro-2-fluoro-phenyl)-4-(4-chloro-2-fluoro-phenyl)-4-cyano-5-(2,2-dimethyl-propyl)-pyrrolidine-2-carbonyl]-amino}-3-methoxy-benzoic acid 1-mPEG-carbonyloxy-ethyl ester (mPEG, average MW, 2200) [compound I-B]
- % ILS vs. Vehicle control ([1]; Cpd I-B 437 mg/kg q7d iv): 37%
- Median survival ([1]; Cpd I-B 437 mg/kg q7d iv, 5 million cells, treatment from day 3): 28 days
- % ILS vs. Vehicle control ([1]; Cpd I-B 437 mg/kg q7d iv, listed as Cpd I-B): *37%
- tumor burden by BLI photon counts compared to Vehicle-treated control (FIG. 1) ([1]; 5 million cells): significantly reduced photon counts

Compound: COc1cc(C(=O)O)ccc1NC(=O)[C@@H]1N[C@@H](CC(C)(C)C)[C@](C#N)(c2ccc(Cl)cc2F)[C@H]1c1cccc(Cl)c1F [compound (A), 4-{[(2R,3S,4R,5S)-4-(4-Chloro-2-fluoro-phenyl)-3-(3-chloro-2-fluoro-phenyl)-4-cyano-5-(2,2-dimethyl-propyl)-pyrrolidine-2-carbonyl]-amino}-3-methoxy-benzoic acid]
- % ILS vs. Vehicle control ([1]; Cpd (A) 80 mg/kg qd × 5 po): *37%
- Median survival ([1]; Cpd (A) 80 mg/kg qd × 5 po): 28 days
- % ILS vs. Vehicle control ([1]; Cpd (A) 100 mg/kg q7d po): *22%
- Median survival ([1]; Cpd (A) 100 mg/kg q7d po): 25 days
